As a reminder, the IC50 is the point on the concentration scale where inhibition reaches its midpoint.

Assay [1] addresses human JAK1 (a.a. 837-1142) (Homo sapiens, UniProt P23458). The assay can be described thus: In vitro JAK kinase assay (HTRF), JAK1. Format: biochemical. The following applies: 1 mM ATP. (TR-FRET usually uses a lanthanide donor and a delayed reading to cut background.)
Procedure: (§1) The catalytic activity of JAK1, JAK2, or JAK3 was assayed by measuring the phosphorylation of a biotinylated peptide. The phosphorylated peptide was detected by homogenous time resolved fluorescence (HTRF). […] Reactions are carried out at room temperature for 1 hour and then stopped with 20 μL 45 mM EDTA, 300 nM SA-APC, 6 nM Eu-Py20 in assay buffer (Perkin Elmer, Boston, Mass.). Binding to the Europium labeled antibody takes place for 40 minutes and HTRF signal was measured on a Fusion plate reader (Perkin Elmer, Boston, Mass.).
The target in assay [2] is human JAK2 (a.a. 828-1132) (Homo sapiens (Human), UniProt O60674). Put plainly: In vitro JAK kinase assay (HTRF), JAK2 versus JAK1. The following applies: IC50 ratio, 1 mM ATP. Format: biochemical.
Procedure: as §1
Assay [3] deals with Human multiple myeloma cell lines KMS12BM, OPM2, MM1.R, MM1.S and KMS11. The assay can be described thus: Cell Titer Glo viability of multiple myeloma cell lines. The assay is classed as cell-based. The following applies: 72 hours, compared to DMSO treated controls, all five cell lines. The procedure: Human multiple myeloma cell lines KMS12BM, OPM2 (DSMZ), MM1.R, MM1.S (ATCC) and KMS11 (JCRB) were seeded into white 96 well plates (Greiner Bio One) at 10^4 cells in 100 μL media. Combinations of dexamethasone (Sigma), lenalidomide (Chemscene), itacitinib, or DMSO control were then added. Doses were selected based on pilot studies designed to find sensitivities of each cell line to these agents. Each dose combination was performed in triplicate. After 72 hours, Cell Titer Glo (Promega) assays were performed as per manufacturer protocol to assess cell viability.
Statistical analyses were performed using Prism Graphpad software. P values were calculated from unpaired t tests—*p<0.05; **p<0.01; ****p<0.0001).
For orientation: In ATP-based viability assays light output follows the ATP content of the culture.

Chain of human JAK2 (a.a. 828-1132) (O60674 828-1132): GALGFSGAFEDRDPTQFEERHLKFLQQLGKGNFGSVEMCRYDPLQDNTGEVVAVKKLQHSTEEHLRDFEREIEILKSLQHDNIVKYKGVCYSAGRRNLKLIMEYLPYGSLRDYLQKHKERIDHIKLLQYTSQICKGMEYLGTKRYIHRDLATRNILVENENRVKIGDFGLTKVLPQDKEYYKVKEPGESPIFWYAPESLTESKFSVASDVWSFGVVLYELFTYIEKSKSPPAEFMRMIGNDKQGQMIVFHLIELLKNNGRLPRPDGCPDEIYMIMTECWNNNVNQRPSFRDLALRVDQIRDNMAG

For `N#CCC1(n2cc(-c3ncnc4[nH]ccc34)cn2)CN(C2CCN(C(=O)c3ccnc(C(F)(F)F)c3F)CC2)C1` [Compound 1, {1-{1-[3-Fluoro-2-(trifluoromethyl)isonicotinoyl]piperidin-4-yl}-3-[4-(7H-pyrrolo[2,3-d]pyrimidin-4-yl)-1H-pyrazol-1-yl]azetidin-3-yl}acetonitrile], the IC50 in assay [1] is < 10 nM. In addition, in assay [2], the JAK2/JAK1 was >10. Also, the cell viability entry in assay [3] was “no change in viability”.

Take `C[C@@H](O)c1nc2cnc3ccsc3c2n1[C@H]1CC[C@H](CC#N)OC1` [Compound 5, ((2R,5S)-5-{2-[(1R)-1-hydroxyethyl]-1H-imidazo[4,5-d]thieno[3,2-b]pyridin-1-yl}tetrahydro-2H-pyran-2-yl)acetonitrile]: the IC50 in assay [1] was < 100 nM. The JAK2/JAK1 in assay [2] was >10.

As to `N#CC[C@]1(n2cc(-c3ncnc4[nH]ccc34)cn2)C[C@H](N2CCC(Oc3cc(CN4CC(O)C4)cc(C(F)(F)F)n3)CC2)C1` [Compound 11, {trans-3-(4-{[4-[(3-hydroxyazetidin-1-yl)methyl]-6-(trifluoromethyl)pyridin-2-yl]oxy}piperidin-1-yl)-1-[4-(7H-pyrrolo[2,3-d]pyrimidin-4-yl)-1H-pyrazol-1-yl]cyclobutyl}acetonitrile], the IC50 in assay [1] is < 10 nM. For the same compound, the JAK2/JAK1 in assay [2] is >10.

On to `N#CCC1(n2cc(-c3ncnc4[nH]ccc34)cn2)CN(C2CCN(C(=O)Nc3ccc(F)cc3C(F)(F)F)CC2)C1` [Compound 2, 4-{3-(Cyanomethyl)-3-[4-(7H-pyrrolo[2,3-d]pyrimidin-4-yl)-1H-pyrazol-1-yl]azetidin-1-yl}-N-[4-fluoro-2-(trifluoromethyl)phenyl] piperidine-1-carboxamide], for which the IC50 in assay [1] is < 10 nM. Also, in assay [2], the JAK2/JAK1 is >10.

As to `CC(C)(O)c1cc(O[C@H]2CC[C@@H](N3CC(CC#N)(n4cc(-c5ncnc6[nH]ccc56)cn4)C3)CC2)nc(C(F)(F)F)c1` [Compound 20, {1-(cis-4-{[4-(1-hydroxy-1-methylethyl)-6-(trifluoromethyl)pyridin-2-yl]oxy}cyclohexyl)-3-[4-(7H-pyrrolo[2,3-d]pyrimidin-4-yl)-1H-pyrazol-1-yl]azetidin-3-yl}acetonitrile], the IC50 in assay [1] is < 10 nM. Besides, the JAK2/JAK1 in assay [2] is >10.

With `N#CCC1(n2cc(-c3ncnc4[nH]ccc34)cn2)CN([C@H]2CC[C@@H](Oc3cc(CN4CC[C@H](O)C4)cc(C(F)(F)F)n3)CC2)C1` [Compound 22, {1-(cis-4-{[4-{[(3S)-3-hydroxypyrrolidin-1-yl]methyl}-6-(trifluoromethyl)pyridin-2-yl]oxy}cyclohexyl)-3-[4-(7H-pyrrolo[2,3-d]pyrimidin-4-yl)-1H-pyrazol-1-yl]azetidin-3-yl}acetonitrile], in assay [1], the IC50 was < 10 nM. Also, the JAK2/JAK1 in assay [2] was >10.

Values taken from patent US11324749B2, “Combination therapy for treatment of hematological diseases” (Incyte Corporation, priority 2018, dated 2022).
